Results: US7498304B2, “Angiogenesis-modulating compositions and uses” (Curis, Inc., priority 2002, dated 2009)

How the values were obtained:
[1] = system: vascular smooth muscle cells (PAC 1), normal human lung fibroblasts, normal prostate stromal cells; experiment: ptc 1 RT-PCR in smooth muscle cells, lung fibroblasts and prostate stromal cells; assay type: cell-based; details: 1 ug/ml for 2 days, vs vehicle
Description: Eighty five percent confluent monolayers of vascular smooth muscle cells (PAC 1) were induced for 2 days with 1 ug/ml of myrShh or an equivalent volume of vehicle in normal media (M 199 complete media with 10% fetal bovine serum). For comparison, primary normal human lung fibroblasts and normal prostate stromal cells were grown in complete FBM and similarly stimulated (Clonetics/Bio-Whittaker, Walkersville, Md.). The cells were harvested and RNA from the cells was prepared and analysed by RT-PCR as above. […] In addition, hedgehog protein induced DNA synthesis in quiescent vascular SMCs and human fibroblasts. PAC-1 (Rothman et al., 1992), WKY (Lemire et al., 1994), primary pulmonary artery SMCs or aortic SMCs (Clonetics/Bio-Whittaker, Walkersville, Md.) were plated (5×10^3/well) in 96 well plates and allowed to adhere for 2-3 hours in 0.18 ml of complete media (M 199 with 10% fetal bovine serum for PAC 1 cells, DMEM with 10% fetal bovine serum for WKY cells or smGM-2 for primary human pulmonary artery or aortic SMCs). The cells were then starved for 18-24 hours in complete media with 0.5% fetal bovine serum. […] 3H-thymidine uptake into cells was determined by scintillation counting using a 1205 Betaplate counter (Wallac, Gaithersburg, Md.).

[2] = system: normal human fibroblasts (CCD37); experiment: normal human fibroblasts (CCD37), competitive RT-PCR and VEGF165 ELISA; assay type: cell-based
Description: To determine if hedgehog can directly induce fibroblasts to produce VEGF or other angiogenic factors, we treated normal human fibroblasts (CCD37) with Myr-Shh and the ability of fibroblasts to respond was evaluated by competitive RT-PCR for ptc 1 and several angiogenic growth factors. Total RNA was prepared from cells treated as described above using Trizol (Life Technologies, Rockville, Md.). Four micrograms of total RNA was used to prepare cDNA using the SuperScriptTM preamplification system (Cat. No. 18089-011, Life Technologies, Rockville, Md.). The PCR reaction using buffer reagents from the SuperScriptTM preamplification system (Life Technologies, Rockville, Md.) was quantitated with […] competitive primers (Ambion). Primers for the amplification of Ptc 1 were [NT] ID NO: 38) and [NT] ID NO: 39) which are based on ptc1 cDNA sequence (GenBank Accession Number U46155). All amplification for Ptc1 were done with 25 cycles of 94° C. for 30 sec; 55° C. for 1 min; 72° C. for 1 min. The cDNA from the same cells was also used as a template for VEGF, bFGF, Angiopoietin 1, and Angiopoietin II amplification. The following primer pairs and PCR cycles were used: […] [NT] ID NO: 40) and [NT] ID NO: 41) which are based on the human VEGF cDNA sequence (GenBank Accession Number E15157). VEGF product was amplified with 30 cycles of 94° C. for 30 sec; 62° C. for 1 min; 72° C. for 1 min; bFGF: [NT] ID NO: 42) and [NT] ID NO: 43) which is based on the human bFGF cDNA sequence (GenBank Accession Number M27968). bFGF product was amplified with 25 cycles of 94° C. for 30 sec; 62° C. for 1 min; 72° C. for 1 min; Angiopoietin I [NT] ID NO: 44) and [NT] ID NO: 45) which is based on human Angiopoietin I cDNA sequence (GenBank Accession Number U83508). Angiopoietin I product was amplified with 25 cycles of 94° C. for 30 sec; 64° C. for 90 sec; Angiopoietin II: [NT] ID NO:46) and [NT] ID NO: 47) which are based on human Angiopoietin II cDNA sequence (GenBank Accesion Number AB009865). Angiopoietin II product was amplified with 32 cycles of 94° C. for 30 sec; 64° C. for 90 sec. As internal control for sample preparation, gel loading, and random variations in RT-PCR, 18S rRNA primers and 18S rRNA competimers (Ambion, Austin, Tex.), used to modify 18S cDNA amplification efficiency, were included in each PCR reaction with target gene-specific primers. The linear range of amplification and optimal 18S primer/Competimer ratio was determined for each target gene following the manufacturer's recommendations (Ambion, Austin, Tex.). […] VEGF 121, 165, and 189 upregulation began at 12 hours and was maximal after 48 hours of incubation of the cells with Shh. […] Cells were stimulated with recombinant human myristolated Shh protein as described above. At harvest, the cell conditioned media was collected, centrifuged to remove cell debris (15 minutes at 1500×g) and production of VEGF165 protein was evaluated by using an ELISA kit (Quantikine human VEGF, R&D Systems, Minneapolis, Minn.).

[3] = system: human umbilical vein and microvascular endothelial cells; experiment: response of endothelial cells to Hh; assay type: cell-based
mouse cornea = experiment: mouse corneal pocket model of angiogenesis; assay type: in vivo
Description: To confirm the angiogenic activity of hedgehog in another well accepted model of angiogenesis, we tested the ability of hedgehog protein to induce neovascularization in the mouse corneal model pocket model of angiogenesis.
Animals were anesthetized by pentobarbital intraperitoneal injection (160 mg/kg). Corneal pockets were created in the eyes of each mouse and a 0.34×0.34 mm sucrose albumin sulfate (Bukh Meditec, Vaerlose, DK) pellet coated with hydron polymer type NCC (Interferon Sciences, New Brunswick, N.J.) containing 1 of the agents indicated below was implanted into the corneal pocket. […] mice were divided into 5 groups: control buffer alone; VEGF 300 ng/pellet; Myr-Shh vehicle alone; Myr-Shh 1.5 microg/pellet […]; Myr-Shh+VEGF (1.5 microg/pellet +300 ng/pellet, respectively). Pellets were positioned 1.0 mm from the corneal limbus, and erythromycin ophthalmic ointment (E. Fourera) was applied to each operated eye. The corneas of all mice were routinely examined by slit-lamp biomicroscopy on postoperative day 6 after pellet implantation.
On the same day vessel length and corneal circumferential neovascularity (in degrees) were measured. After completing these measurements, C57BL/6J mice received an intravenous injection of […] of BS-1 lectin FITC-conjugated (Vector Laboratories, Burlingame, Calif.). Thirty minutes later, the animals were sacrificed. The eyes were enucleated and fixed in 1% paraformaldehyde solution. After fixation, the corneas were placed on glass slides and examined by fluorescence microscopy.
To determine the mechanism by which Shh induces angiogenesis both Shh and VEGF-stimulated corneas (see Example 3) were excised and X-gal stained as described in Example 1 after fixation of the whole eye for 1 hour in 1% paraformaldehyde followed by enucleation and fixation of the corneal hemisphere in 1% paraformaldehyde for 30 minutes. […] Endothelial cell immunostaining was done with a rat monoclonal antibody against mouse CD-31 (Pharmigen, San Diego, Calif.) followed by a biotinylated goat anti-rat immunoglobulin secondary antibody. Smooth muscle cells and pericytes were identified with a mouse monoclonal antibody against SM a-actin conjugated with alkaline-phosphatase (Sigma, St. Louis, Mo.) and fibroblasts were identified using an anti-vimentin antibody (Sigma, St. Louis, Mo.).
We then immunostained the Shh-induced corneas with a rabbit polyclonal anti-VEGF antibody (Santa Cruz Biotechnology, Santa Cruz, Calif.) with a biotinylated goat anti-rabbit immunoglobulin as secondary antibody.

[4] = system: Shh signaling pathway in MEFs homozygous for ptc-lacZ (cell line 23-1); experiment: β-galactosidase activity in ptc-lacZ homozygous mouse embryonic fibroblasts; assay type: cell-based; details: normalized to whole protein content
Description: These studies involve the use of mouse embryonic fibroblasts (MEFs) that were generated by trypsin digestion of E8.5 embryos from patched (ptc) ±matings. […] Thus, in these ptc−/− embryos, the Shh signaling pathway is activated in many tissues, and the lacZ gene product β-galactosidase is expressed in all of those tissues as a report of pathway activation.
The Shh signaling pathway can be activated in these fibroblasts in cell culture, and that the level of β-galactosidase activity does reflect the degree of pathway activation. The MEF line 23-4 is heterozygous for ptc-lacZ, and thus contains one functional ptc allele capable of maintaining a repressed state of the pathway, but will express lacZ when the pathway is activated by addition of Shh protein.

[5] = pellet: Myr-Shh 1.5 microg or VEGF 300 ng

Compound	ptc 1 expression [1]	start of VEGF 121, 165 and 189 upregulation [2]	time of maximal VEGF 121, 165 and 189 upregulation [2]	time of maximal increase of Ang-1 and Ang-2 [2]	VEGF mRNA isoforms (VEGF121, 165, 189) ([2]; RT-PCR)	bFGF mRNA ([2]; any time-points)	VEGF production (VEGF165 protein in cell media, ELISA) ([2]; at 72 hours)	Ang-1 and Ang-2 mRNA ([2]; quantitative RT-PCR)	Ptc1 gene expression ([2]; time course)	response to Hh [3]	X-gal staining (Ptc 1 expression) of corneas (mouse cornea; Ptc1-lacZ corneas)	VEGF immunostaining of corneas (mouse cornea; anti-VEGF antibody)	density of vessels (mouse cornea; compared with VEGF)	maximum vessel lengths (mouse cornea; [5])	vessel diameters (mean) (mouse cornea; [5])	neovascular growth (mouse cornea; pellet: Myr-Shh 1.5 microg or VEGF 300 ng, day 6)	vessel length, circumferential neovascularity and diameter of the lumens (mouse cornea; summary)	β-galactosidase activity [4]
Myr-Shh: recombinant human myristolated Shh protein (myristylated Sonic hedgehog)	increased ptc 1 expression	12 h	48 h	36 h	strongly upregulated	No bFGF upregulation was detectable	significant upregulation	upregulation of both genes	upregulating the Ptc1 gene	Neither human umbilical vein and microvascular endothelial cells respond	strong X-gal staining	VEGF protein is in the fibroblasts and matrix immediately adjacent to the neovascular area	slightly lower	1020+200 um	33±17 um	significant neovascular growth	statistically significant increase	
C[C@H]1CC[C@]2(NC1)O[C@H]1C[C@H]3[C@@H]4CC[C@H]5C[C@@H](O)CC[C@]5(C)[C@H]4CC[C@]3(C)[C@H]1[C@@H]2C [tomatidine]																		cannot be achieved
